Laboratory results as given in PubChem BioAssay (NCI).
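Dose response: 5 concentrations. Exposure: 48 h. Format: 96-well plates. Endpoint: linear interpolation; highest concentration if not reached. The concentration for 50% growth inhibition is given as GI50. TGI denotes the concentration required for complete inhibition of growth.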

Key:
Assay in all cases: NCI tumour cell line growth inhibition, 48 h
NCI-H226 lung = system: NCI-H226 lung
NCI-H23 lung = system: NCI-H23 lung
NCI-H460 lung = system: NCI-H460 lung
NCI-H522 lung = system: NCI-H522 lung
NCI/ADR-RES ovarian = system: NCI/ADR-RES ovarian
OVCAR-3 ovarian = system: OVCAR-3 ovarian
OVCAR-4 ovarian = system: OVCAR-4 ovarian
OVCAR-5 ovarian = system: OVCAR-5 ovarian
OVCAR-8 ovarian = system: OVCAR-8 ovarian
PC-3 prostate = system: PC-3 prostate
RXF 393 renal = system: RXF 393 renal
SF-268 CNS = system: SF-268 CNS
SF-295 CNS = system: SF-295 CNS
SF-539 CNS = system: SF-539 CNS
SK-MEL-2 melanoma = system: SK-MEL-2 melanoma
SK-MEL-28 melanoma = system: SK-MEL-28 melanoma
SK-MEL-5 melanoma = system: SK-MEL-5 melanoma
SK-OV-3 ovarian = system: SK-OV-3 ovarian
SN12C renal = system: SN12C renal
SNB-19 CNS = system: SNB-19 CNS
SNB-75 CNS = system: SNB-75 CNS
SW-620 colon = system: SW-620 colon
T-47D breast = system: T-47D breast
TK-10 renal = system: TK-10 renal
U251 CNS = system: U251 CNS
UACC-257 melanoma = system: UACC-257 melanoma
UACC-62 melanoma = system: UACC-62 melanoma
UO-31 renal = system: UO-31 renal

Compound `Cc1cc2nc3c4ccccc4n(CCN(C)C)c3nc2cc1C` has a GI50 (NCI-H226 lung) of 2.01 µM, a TGI (NCI-H226 lung) of 6.99 µM and a GI50 (NCI-H23 lung) of 1.87 µM. It also gave a TGI (NCI-H23 lung) of 5.7 µM, a GI50 (NCI-H460 lung) of 0.709 µM and a TGI (NCI-H460 lung) of 9.1 µM. It also gave a GI50 (NCI-H522 lung) of 0.673 µM, a TGI (NCI-H522 lung) of 3.24 µM and a GI50 (NCI/ADR-RES ovarian) of 1.39 µM. It also gave a TGI (NCI/ADR-RES ovarian) of 12.7 µM, a GI50 (OVCAR-3 ovarian) of 1.91 µM and a TGI (OVCAR-3 ovarian) of 7.28 µM. The GI50 (OVCAR-4 ovarian) was 2.55 µM, the TGI (OVCAR-4 ovarian) was 8.94 µM and the GI50 (OVCAR-5 ovarian) was 2.1 µM. The TGI (OVCAR-5 ovarian) was 6.45 µM, the GI50 (OVCAR-8 ovarian) was 1.16 µM and the TGI (OVCAR-8 ovarian) was 12.4 µM. For the same compound, the GI50 (PC-3 prostate) was 2.01 µM, the TGI (PC-3 prostate) was 8.19 µM and the GI50 (RXF 393 renal) was 1.56 µM. It also gave a TGI (RXF 393 renal) of 4.1 µM, a GI50 (SF-268 CNS) of 1.45 µM and a TGI (SF-268 CNS) of 5.86 µM. For the same compound, the GI50 (SF-295 CNS) was 1.39 µM, the TGI (SF-295 CNS) was 9.84 µM and the GI50 (SF-539 CNS) was 1.83 µM. For the same compound, the TGI (SF-539 CNS) was 4.66 µM, the GI50 (SK-MEL-2 melanoma) was 1.9 µM and the TGI (SK-MEL-2 melanoma) was 4.24 µM. The GI50 (SK-MEL-28 melanoma) was 2.09 µM, the TGI (SK-MEL-28 melanoma) was 4.73 µM and the GI50 (SK-MEL-5 melanoma) was 1.7 µM. For the same compound, the TGI (SK-MEL-5 melanoma) was 3.19 µM, the GI50 (SK-OV-3 ovarian) was 3.1 µM and the TGI (SK-OV-3 ovarian) was 20.2 µM. The GI50 (SN12C renal) was 1.08 µM, the TGI (SN12C renal) was 10.5 µM and the GI50 (SNB-19 CNS) was 2.33 µM. For the same compound, the TGI (SNB-19 CNS) was 12.3 µM, the GI50 (SNB-75 CNS) was 1.28 µM and the TGI (SNB-75 CNS) was 3.2 µM. The GI50 (SW-620 colon) was 0.54 µM, the TGI (SW-620 colon) was 9.59 µM and the GI50 (T-47D breast) was 2.8 µM. It also gave a TGI (T-47D breast) of 12.6 µM, a GI50 (TK-10 renal) of 2.98 µM and a TGI (TK-10 renal) of 14.1 µM. For the same compound, the GI50 (U251 CNS) was 2.01 µM, the TGI (U251 CNS) was 11.3 µM and the GI50 (UACC-257 melanoma) was 1.94 µM. The TGI (UACC-257 melanoma) was 5.16 µM, the GI50 (UACC-62 melanoma) was 1.43 µM and the TGI (UACC-62 melanoma) was 2.82 µM. For the same compound, the GI50 (UO-31 renal) was 0.726 µM and the TGI (UO-31 renal) was 14.5 µM.
